Test results reported in patent US20130287688A1, “NOVEL COMPOSITIONS AND USES OF ANTI-HYPERTENSION AGENTS FOR CANCER THERAPY” (XTUIT PHARMACEUTICALS, INC., priority 2010, published 2013).

Key:
[1] = Losartan bioanalysis: plasma and tumor levels (HPLC/FLU); conditions: male, FVB, mouse, subcutaneous
E0771 tumors [2] = assay: Nanoparticle penetration (effective permeability) by intravital multiphoton microscopy; format: in vivo, mice
Excerpt: Penetration rates are quantified as effective permeability, which is the transvascular mass flux per unit vascular surface area and transvascular concentration difference.
Nanoparticle penetration rates were quantified as transvascular mass flux per unit vascular surface area and transvascular concentration difference, termed as the effective permeability.
Images were taken at ˜60 mW at sample surface. Mosaic images were taken in raster pattern using a motorized stage (H101, Prior Scientific) and customized automation software (LabView, National Instruments). Imaging studies were performed with a 20× magnification, 0.95NA water immersion objective (Olympus XLUMPlanFl, 1-UB965, Optical Analysis).
Concentrations were adjusted with in vitro calibration to result in roughly equal photoluminescence intensity for all three nanoparticle samples under 800 nm multiphoton excitation. […] Images were taken every 3 min at each region of interest for a duration of 1 hr. […] The analysis approach involved 3D vessel tracing to create vessel metrics and a 3D map of voxel intensity versus distance to the nearest vessel over time. Images were also corrected for sample movement over time with 3D image registration. The effective permeability was calculated with
Fluorescence intensities were used as these concentrations. The calculation was made as an average over the entire imaged volume for each tumor.

E0771 breast tumors = assay: Breast tumor growth and survival studies; format: in vivo, mice
Experimental: Breast tumor growth and survival studies: Mice bearing orthotopic E0771 or 4T1 breast tumors were split into treatment groups, time-matched for time after implantation and size-matched for tumor volume at this time (110-111 mm^3 in E0771, in 4T1). […] The primary tumors were then measured every 2 days, beginning on day 0, using calipers. Tumor growth was quantified using the time for each to reach double its initial volume Animal survival was quantified based on time of death after initiation of treatment or time to reach excessive tumor burden (>1000 mm^3).

E0771 tumors [3] = assay: Solid stress (tumor opening technique); design: species or system mice; conditions: mouse, in vivo
Experimental: Solid stress was assessed using an ex vivo technique involving the measurement of the extent of tumor tissue relaxation (tumor opening relative to tumor diameter) following a stress-releasing incision, with larger openings indicating higher stress.
When the tumors reached a size of −1 cm in diameter, the mice were anesthetized. Subsequently, each tumor was excised, washed with Hanks' Balanced Salt Solution (HBSS) and its three dimensions were measured. Each tumor was cut along its longest axis, to a depth of 80% of its shortest dimension, using a scalpel. The tumors were allowed to relax for 10 minutes in HBSS to diminish any transient, poro-elastic responses. Afterwards, the opening resulting from the cut was measured at the middle of the cut at the surface of the tumor. Solid stress is proportional to the size of the opening relative to the size of the dimension perpendicular to the cut.

[4] = test system: carcinoma associated fibroblasts (CAFs); conditions: losartan 10 μmol/L, 24 hrs
Experimental: Protein assays were done with commercial ELISA kits.
CAFs were plated in 24 well plates at a concentration of 500K cells/well. […] Treatment was done in low serum to reduce background collagen levels. Conditioned medium was collected at the end of the 24-hr treatment period and analyzed for collagen levels.
Collagen I measurements were done with a type I C-terminal collagen propetide Enzyme Linked Immunosorbent Assay (ELISA) kit (Quidel, San Diego, Calif.) and the Sircol soluble collagen assay (Biocolor Ltd., United Kingdom). TGF-β1 assays were performed with a human TGF-β1 ELISA kit (R&D Systems, Minneapolis, Minn.). The assay only measures the free-form of mature TGF-β1. To measure total levels of TGF-β1 the latent form of TGF-β1 was activated with 1N HCl.

HSTS26T tumors [5] = assay: Intratumoral spread of i.t. injected oncolytic HSV (GFP); format: in vivo, mice; conditions: 24 hrs after i.t. injection of HSV expressing GFP
Excerpt: (§1) Based on the previous studies on the tumor interstitial matrix (Pluen A, et al. (2001) Proc Natl Acad Sci USA 98:4628-4633 and Brown E, et al. (2003) Nat Med 9:796-800), the inventors then sought to determine if a decrease in collagen content by Losartan can improve the intratumoral distribution of nanoparticles. The inventors therefore measured the intratumoral distribution of fluorescent polystyrene nanoparticles (100 nm diameter) in three different tumor types—HSTS26T, Mu89, and L3.6 pl—after an i.t. or i.v. injection. In mice injected i.t. with nanoparticles, losartan improved nanoparticle accumulation and penetration in the tumor center (FIG. 8A; HSTS26T p<0.001, Mu89 p<0.001). Conversely, there was little or no nanoparticle accumulation in the center of control tumors. Most of the injected nanoparticles in control tumors were found in the tumor margin and around the needle insertion point (FIG. 8A). The inventors also determined the effects of losartan on the intratumoral distribution of oncolytic HSV.
(§2) Nanoparticles and oncolytic HSV were infused with a syringe pump (Harvard Apparatus Standard Pump 22, Holliston, Mass.) at a flow rate of 4 μl/min. The inventors injected 10 μl of HSV (2.5×10^5 t.u.) expressing the green fluorescent protein (GFP), or 10 μl of fluorescent nanoparticles (diameter of […]; concentration of 1×10^13 nanoparticles/ml). […]

Mu89 tumors [6] = assay: as above; format: in vivo, mice; conditions: 24 hrs after i.t. injection of HSV expressing GFP
Excerpt: as §1, §2

HSTS26T tumors [7] = assay: Necrosis 21 days after HSV injection; format: in vivo, mice; conditions: losartan prior to HSV injection
Excerpt: (§3) Hematoxylin staining of intact tumor areas, necrosis, and HSV immunostaining is shown. Necrotic regions are indicated by black arrows. Even though there was no detectable difference in necrotic area between HSTS26T and MU89, necrosis is confined to specific regions in MU89 while there is necrotic tissue (bounded by HSV immunostaining) throughout HSTS26T tumors. Scale bar=2 mm.
(§4) To determine the relationship between virus infection, necrosis and collagen structure 21 days after the HSV injection, consecutive paraffin sections were stained with either a polyclonal HSV-1 antibody (DAKO, Glostrup Denmark) or a collagen I antibody (LF-67). For collagen I staining in paraffin sections, slides were treated with 3% hydrogen peroxide prior to antigen retrieval with Target Retrieval Solution, pH 9 (DAKO, Carpinteria, Calif.). The slides were then treated with 0.05% trypsin before the primary collagen I antibody was applied at a dilution of 1:500. Sections stained with collagen I or HSV were imaged with a light microscope.

Mu89 tumors [8] = assay: Necrosis 21 days after HSV injection; format: in vivo, mice; conditions: losartan prior to HSV injection
Excerpt: as §3, §4

HSTS26T tumors [9] = assay: Vascular density in tumors; conditions: in vivo

SMILES: CCCCc1nc(Cl)c(CO)n1Cc1ccc(-c2ccccc2-c2nn[nH]n2)cc1 [losartan]
- concentration at 2 h ([1]; plasma, 40 mg/kg, Plasma 2 hr level, Day 14, Group 3: losartan subcutaneous injection without pump 40 mg/kg daily): 423 ng/mL
- concentration at 2 h ([1]; plasma, 40 mg/kg, Plasma 2 hr level, Day 19, Group 3: losartan subcutaneous injection without pump 40 mg/kg daily): 152 ng/mL
- concentration at 6 h ([1]; plasma, 40 mg/kg, Plasma 6 hr level, Day 14, Group 3: losartan subcutaneous injection without pump 40 mg/kg daily): 11 ng/mL
- concentration at 6 h ([1]; plasma, 40 mg/kg, Plasma 6 hr level, Day 19, Group 3: losartan subcutaneous injection without pump 40 mg/kg daily): 28 ng/mL
- concentration at 2 h ([1]; plasma, 40 mg/kg/day, Plasma 2 hr level, Day 14, Group 2: losartan via subcutaneous pump 40 mg/kg/day): 227 ng/mL
- concentration at 2 h ([1]; plasma, 40 mg/kg/day, Plasma 2 hr level, Day 19, Group 2: losartan via subcutaneous pump 40 mg/kg/day): 370 ng/mL
- concentration at 6 h ([1]; plasma, 40 mg/kg/day, Plasma 6 hr level, Day 14, Group 2: losartan via subcutaneous pump 40 mg/kg/day): 304 ng/mL
- concentration at 6 h ([1]; plasma, 40 mg/kg/day, Plasma 6 hr level, Day 19, Group 2: losartan via subcutaneous pump 40 mg/kg/day): 376 ng/mL
- concentration at 2 h ([1]; tumor, 40 mg/kg, Tumor 2 hr level, Day 14, Group 3: losartan subcutaneous injection without pump 40 mg/kg daily): 163 ng/mL
- concentration at 2 h ([1]; tumor, 40 mg/kg, Tumor 2 hr level, Day 19, Group 3: losartan subcutaneous injection without pump 40 mg/kg daily): 41 ng/mL
- concentration at 6 h ([1]; tumor, 40 mg/kg, Tumor 6 hr level, Day 14, Group 3: losartan subcutaneous injection without pump 40 mg/kg daily): 21 ng/mL
- concentration at 6 h ([1]; tumor, 40 mg/kg, Tumor 6 hr level, Day 19, Group 3: losartan subcutaneous injection without pump 40 mg/kg daily): 54 ng/mL
- concentration at 2 h ([1]; tumor, 40 mg/kg/day, Tumor 2 hr level, Day 14, Group 2: losartan via subcutaneous pump 40 mg/kg/day): 50 ng/mL
- concentration at 2 h ([1]; tumor, 40 mg/kg/day, Tumor 2 hr level, Day 19, Group 2: losartan via subcutaneous pump 40 mg/kg/day): 56.1 ng/mL
- concentration at 6 h ([1]; tumor, 40 mg/kg/day, Tumor 6 hr level, Day 14, Group 2: losartan via subcutaneous pump 40 mg/kg/day): 57 ng/mL
- concentration at 6 h ([1]; tumor, 40 mg/kg/day, Tumor 6 hr level, Day 19, Group 2: losartan via subcutaneous pump 40 mg/kg/day): 66 ng/mL
- effective permeability (E0771 tumors [2]; 12 nm nanoparticles): improved
- effective permeability (E0771 tumors [2]; 60 nm nanoparticles): improved
- effective permeability (E0771 tumors [2]; 125 nm nanoparticles): improved
- tumor growth rate (E0771 breast tumors; agent given alone (losartan 40 mg/kg daily or doxorubicin 2 mg/kg every three days)): no significant effect
- median survival (E0771 breast tumors; combination of losartan and doxorubicin, saline alone 12 days): 23.5 days
- survival (E0771 breast tumors; losartan alone): did not shorten survival
- tumor growth (E0771 breast tumors; losartan in combination with doxorubicin): significantly delayed
- solid stress (E0771 tumors [3]): reduces solid stress
- decrease in collagen I levels [4]: 27%
- reduction of active-TGF-β1 levels [4]: 90%
- total TGF-β1 levels [4]: unaffected
- virus spread (HSTS26T tumors [5]): significantly increased
- virus spread (Mu89 tumors [6]): significantly increased
- necrosis in tumors (HSTS26T tumors [7]): two-fold increase
- necrosis in tumors (Mu89 tumors [8]): two-fold increase
- tumor growth or vascular density (HSTS26T tumors [9]): did not affect
